Assay results taken from patent US6174909A, “4-aminotetrahydrobenzisoxazole or -isothiazole compounds” (H. Lundbeck A/S, priority 1995, dated 2001).
Where a name gives a salt, the structure may show the parent alone.

Assays:
[1] = test system: isoniazide induced convulsions in mice; assay: Isoniazid antagonism (antagonism of isoniazide induced convulsions in mice); assay type: in vivo, mice (male NMRI/BOM); conditions: Mus musculus, sc, 30 min before 300 mg isoniazide s.c., protected = no convulsions within 60 min, log probit analysis
Procedure: The test is a test for antagonism of isoniazide induced convulsions in mice.
The test substance is given s.c. to mice (male NMRI/BOM, body weight 20-25 g) and 30 min later 300 mg isoniazide is given s.c. Five mice are used per dose and a control group only receiving isoniazide is included. This dose of isoniazide induces intermittent tonic seizures.
The animals are placed individually in Macrolon type II cages and the time when convulsions first occur is recorded. The experiment is stopped after 90 min. The animals that have not had convulsions within 60 min. are recorded as + (protected). The results, i.e. the number of protected mice pr number of tested mice are stated in fractions as follows: 0/5, 1/5 . . . , 5/5.

[2] = test system: GABA uptake in synaptosomes; assay: GABA uptake inhibition in synaptosomes (overall, i.e. neuronal and glial); assay type: biochemical; conditions: values marked * = Preliminary Data
Procedure: The inhibition of GABA Uptake was performed by the method described by Falch et. al, Drug Dev. Res., 1990,21, 169-188. By this method the overall, i.e. neuronal and glial, inhibition of GABA uptake is determined.

Structure (SMILES) | ED50 [1] | IC50 [2]
Oc1noc2c1C(N1CCCC1)CCC2 (racemic) [Compound 8d, (R,S)-3-Hydroxy-4-(1-pyrrolidinyl)-4,5,6,7-tetrahydro-1,2-benzisoxazole, hydrobromide] | > 140 µmol/kg | 210 µM
CNC1CCCc2on(COC(=O)C(C)(C)C)c(=O)c21 (racemic) [Compound 14b, (R,S)-4-methylamino-2-pivaloyloxym ethyl-4,5,6,7-tetrahydro-1,2-benz isoxazol-3-one, hemioxalate] | 220 µmol/kg | > 300 µM
CC(=O)OCCNC1CCCc2onc(O)c21 (racemic) [Compound 8c, (R,S)-4-(2-Acetyloxyethylamino)-3-hydroxy-4,5,6,7-tetrahydro-1,2-benzisoxazole, hydrobromide] | > 120 µmol/kg | 120 µM
CN(CCC=C(c1ccccc1)c1ccccc1)C1CCCc2onc(O)c21 (racemic) [Compound 20a, (R,S)-3-Hydroxy-4-[N-(4,4-diphenyl-3-butenyl)methylamino]4,5,6,7-tetrahydro-1,2-benzisoxazole, hydrochloride] | 97 µmol/kg | 0.37 µM
Oc1noc2c1C(NCc1ccccc1)CCC2 (racemic) [Compound 41a, (R,S)-3-Hydroxy-4-benzylamino-4,5,6,7-tetrahydro-1,2-benzisoxazole hydrobromide] | 77 µmol/kg | 140 µM
CN(CCOC(c1ccc(F)cc1)c1ccc(F)cc1)C1CCCc2onc(O)c21 (racemic) [Compound 16a, (R,S)-4-[N-[bis(4-fluorophenyl)methyl-2-oxyethyl]-N-methylamino]-3-hydroxy-4,5,6,7-tetrahydro-1,2-benzisoxazole, sodium salt] | 55 µmol/kg | 4.5 µM
Oc1noc2c1C(NCC(c1ccccc1)c1ccccc1)CCC2 (racemic) [Compound 41b, (R,S)-3-Hydroxy-4-(2,2-diphenylethylamino)-4,5,6,7-tetrahydro-1,2-benzisoxazole hydrobromide] | > 190 µmol/kg | 22 µM
CCNC1CCCc2onc(O)c21 (racemic) [Compound 8e, (R,S)-4-Ethylamino-3-hydroxy-4,5,6,7-tetrahydro-1,2-benzisoxazole, hydrobromide] | > 300 µmol/kg | 100 µM
C=CCNC1CCCc2onc(O)c21 (racemic) [Compound 8f, (R,S)-4-(2-propen-1-ylamino)-3-hydroxy-4,5,6,7-tetrahydro-1,2-benzisoxazole, oxalate] | 320 µmol/kg | 100 µM
